Data reported in patent US20240270762A1, “PENICILLIN-BINDING PROTEIN INHIBITORS” (priority 2021, published 2024).
In brackets after ≈: the same amount, converted by molar mass.

Assays:
A. baumannii CDC-0033 = assay: microbe, parasite or virus in culture; type: cell-based; details: Acinetobacter baumannii, CDC0033, read-out: MIC, A. baumannii CDC-0033
A. baumannii CDC-0083 = assay: microbe, parasite or virus in culture; type: cell-based; details: Acinetobacter baumannii, CDC0083, read-out: MIC, A. baumannii CDC-0083
P. aeruginosa CDC-0110 = assay: microbe, parasite or virus in culture; type: cell-based; details: Pseudomonas aeruginosa, CDC0110, read-out: Minimum inhibitory concentration, P. aeruginosa CDC-0110
N. gonorrhoeae WHO X = assay: Liquid broth MIC in Fastidious broth; details: Neisseria gonorrhoeae, read-out: Minimum Inhibitory Concentration, WHO X
N. gonorrhoeae CDC-0197 = assay: Liquid broth MIC in Fastidious broth; details: Neisseria gonorrhoeae, CDC0197, read-out: Minimum Inhibitory Concentration, CDC-0197
P. aeruginosa CDC-0054 = assay: microbe, parasite or virus in culture; type: cell-based; details: Pseudomonas aeruginosa, CDC0054, read-out: Minimum inhibitory concentration, P. aeruginosa CDC-0054
[1] = system: B. thailandensis ATCC 700388; assay: microbe, parasite or virus in culture; type: cell-based; details: Burkholderia thailandensis, ATCC700388, read-out: Minimum inhibitory concentration (MIC), B. thailandensis ATCC 700388
P. aeruginosa ATCC 27853 = assay: microbe, parasite or virus in culture; type: cell-based; details: Pseudomonas aeruginosa, ATCC27853, read-out: Minimum inhibitory concentration, P. aeruginosa ATCC 27853
[2] = target: T1, PBP3 from Pseudomonas aeruginosa (PAO1) (Pseudomonas aeruginosa, UniProt G3XD46); assay: Bocillin-FL fluorescence polarization competition binding, P. aeruginosa PBP3; details: Binding affinity to P. aeruginosa PBP3; fluorescence polarization competition binding assay using Bocillin-FL; read-out: P. aeruginosa PBP3 Potency
T1 construct: made in house
Summary of the method: (§1)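 Purified PBPs pre-incubated with inhibitor (E. coli PBP3 1.5 μM, 30 min; P. aeruginosa PBP3 0.75 μM, A. baumannii PBP1a 1 μM and PBP3 0.2 μM, 15 min), then Bocillin-FL 0.1 μM (0.05 μM for PBP1a) added; FP read up to 60 min. EC50 = concentration halving bound Bocillin-FL.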

P. aeruginosa CDC-0090 = assay: microbe, parasite or virus in culture; type: cell-based; details: Pseudomonas aeruginosa, CDC0090, read-out: Minimum inhibitory concentration, P. aeruginosa CDC-0090
N. gonorrhoeae WHO G = assay: Liquid broth MIC in Fastidious broth; details: Neisseria gonorrhoeae, read-out: Minimum Inhibitory Concentration, WHO G
[3] = system: N. gonorrhoeae ATCC 49226; assay: Liquid broth MIC in Fastidious broth; details: Neisseria gonorrhoeae, ATCC49226, read-out: Minimum Inhibitory Concentration, ATCC 49226
[4] = system: B. humptydooensis ATCC BAA-2767; assay: microbe, parasite or virus in culture; type: cell-based; details: Burkholderia humptydooensis, ATCCBAA2767, read-out: Minimum inhibitory concentration (MIC), B. humptydooensis ATCC BAA-2767
[5] = target: T2, PBP3 from Escherichia coli (K-12) (Escherichia coli, UniProt P0AD68); assay: Bocillin-FL fluorescence polarization competition binding, E. coli PBP3
T2 construct: made in house
Summary of the method: as §1

P. aeruginosa CDC-0095 = assay: microbe, parasite or virus in culture; type: cell-based; details: Pseudomonas aeruginosa, CDC0095, read-out: Minimum inhibitory concentration, P. aeruginosa CDC-0095

T1 sequence (G3XD46 whole entry): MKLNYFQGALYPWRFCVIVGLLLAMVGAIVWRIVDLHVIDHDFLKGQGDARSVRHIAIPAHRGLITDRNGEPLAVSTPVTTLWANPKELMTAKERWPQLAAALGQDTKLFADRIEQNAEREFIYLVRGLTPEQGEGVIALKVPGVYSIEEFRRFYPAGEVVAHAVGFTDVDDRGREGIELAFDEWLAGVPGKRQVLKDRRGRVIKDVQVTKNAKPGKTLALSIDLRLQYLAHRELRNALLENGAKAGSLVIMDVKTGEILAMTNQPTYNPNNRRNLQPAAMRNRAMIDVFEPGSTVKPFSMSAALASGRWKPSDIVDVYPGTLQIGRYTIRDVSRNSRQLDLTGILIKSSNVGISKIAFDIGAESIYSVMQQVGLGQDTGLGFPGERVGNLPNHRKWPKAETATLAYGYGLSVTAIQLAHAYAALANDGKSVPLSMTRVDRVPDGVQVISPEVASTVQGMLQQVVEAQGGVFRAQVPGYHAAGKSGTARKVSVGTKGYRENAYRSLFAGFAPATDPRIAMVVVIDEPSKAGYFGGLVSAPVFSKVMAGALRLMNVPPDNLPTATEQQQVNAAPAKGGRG
T2 sequence (P0AD68 1-577): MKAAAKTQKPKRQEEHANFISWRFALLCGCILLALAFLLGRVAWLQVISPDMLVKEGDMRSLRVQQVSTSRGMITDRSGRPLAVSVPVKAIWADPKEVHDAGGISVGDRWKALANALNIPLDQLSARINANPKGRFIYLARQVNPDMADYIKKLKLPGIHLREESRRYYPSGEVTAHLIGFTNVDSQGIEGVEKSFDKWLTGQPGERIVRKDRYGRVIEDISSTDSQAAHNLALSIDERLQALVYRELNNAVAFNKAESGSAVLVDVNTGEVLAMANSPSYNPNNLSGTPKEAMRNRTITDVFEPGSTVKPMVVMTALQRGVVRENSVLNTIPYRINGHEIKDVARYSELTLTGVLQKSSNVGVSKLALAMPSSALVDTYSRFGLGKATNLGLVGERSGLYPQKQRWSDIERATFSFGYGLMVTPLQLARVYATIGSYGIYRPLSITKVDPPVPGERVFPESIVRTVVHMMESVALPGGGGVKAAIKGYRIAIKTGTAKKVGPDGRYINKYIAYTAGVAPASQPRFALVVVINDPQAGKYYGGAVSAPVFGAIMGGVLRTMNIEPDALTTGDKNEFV

`O=C(O)c1c(F)ccc2c1OB(O)[C@@H](NC(=O)C(NC(=O)N1CCN(S(=O)(=O)CCCNC(=O)[C@@H]3CCCN3)C1=O)c1cc(F)c(O)c(O)c1Cl)C2` (stereo partly drawn) [Example 275, (3R)-3-(2-(2-chloro-5-fluoro-3,4-dihydroxyphenyl)-2-(2-oxo-3-((3-((S)-pyrrolidine-2-carboxamido)propyl)sulfonyl)imidazolidine-1-carboxamido)acetamido)-7-fluoro-2-hydroxy-3,4-dihydro-2H-benzo[e][1,2]oxaborinine-8-carboxylic acid] showed an MIC (A. baumannii CDC-0033) of 8 to 16 µg/mL (≈ 10.4 to 20.7 µM), an MIC (A. baumannii CDC-0083) of 2 to 4 µg/mL (≈ 2.59 to 5.18 µM) and an MIC (P. aeruginosa CDC-0110) of less than 1 µg/mL. For the same compound, the MIC (N. gonorrhoeae WHO X) was greater than 64 µg/mL, the MIC (N. gonorrhoeae CDC-0197) was 16 to 32 µg/mL (≈ 20.7 to 41.4 µM) and the MIC (P. aeruginosa CDC-0054) was 8 to 16 µg/mL (≈ 10.4 to 20.7 µM). The MIC [1] was less than 1 µg/mL, the MIC (P. aeruginosa ATCC 27853) was 2 to 4 µg/mL (≈ 2.59 to 5.18 µM) and the IC50 [2] was less than 10 µM. It also gave an MIC (P. aeruginosa CDC-0090) of 8 to 16 µg/mL (≈ 10.4 to 20.7 µM), an MIC (N. gonorrhoeae WHO G) of 16 to 32 µg/mL (≈ 20.7 to 41.4 µM) and an MIC [3] of 16 to 32 µg/mL (≈ 20.7 to 41.4 µM). The MIC [4] was less than 1 µg/mL, the EC50 [5] was 10 to 50 µM and the MIC (P. aeruginosa CDC-0095) was 8 to 16 µg/mL (≈ 10.4 to 20.7 µM).

`O=C(NCCCS(=O)(=O)N1CCN(C(=O)NC(C(=O)N[C@H]2Cc3ccc(F)c(C(=O)O)c3OB2O)c2cc(F)c(O)c(O)c2Cl)C1=O)Nc1ccc(O)cc1` (stereo partly drawn) [Example 276, (3R)-3-(2-(2-chloro-5-fluoro-3,4-dihydroxyphenyl)-2-(3-((3-(3-(4-hydroxyphenyl)ureido)propyl)sulfonyl)-2-oxoimidazolidine-1-carboxamido)acetamido)-7-fluoro-2-hydroxy-3,4-dihydro-2H-benzo[e][1,2]oxaborinine-8-carboxylic acid] was tested, and the MIC (A. baumannii CDC-0033) was 8 to 16 µg/mL (≈ 9.87 to 19.7 µM), the MIC (A. baumannii CDC-0083) was less than 1 µg/mL and the MIC (P. aeruginosa CDC-0110) was 2 to 4 µg/mL (≈ 2.47 to 4.93 µM). For the same compound, the MIC (N. gonorrhoeae WHO X) was greater than 64 µg/mL, the MIC (N. gonorrhoeae CDC-0197) was 16 to 32 µg/mL (≈ 19.7 to 39.5 µM) and the MIC (P. aeruginosa CDC-0054) was 8 to 16 µg/mL (≈ 9.87 to 19.7 µM). It also gave an MIC [1] greater than 128 µg/mL, an MIC (P. aeruginosa ATCC 27853) of 2 to 4 µg/mL (≈ 2.47 to 4.93 µM) and an IC50 [2] of less than 10 µM. For the same compound, the MIC (P. aeruginosa CDC-0090) was less than 1 µg/mL, the MIC (N. gonorrhoeae WHO G) was 16 to 32 µg/mL (≈ 19.7 to 39.5 µM) and the MIC [3] was 16 to 32 µg/mL (≈ 19.7 to 39.5 µM). For the same compound, the MIC [4] was 32 to 64 µg/mL (≈ 39.5 to 78.9 µM), the EC50 [5] was less than 10 µM and the MIC (P. aeruginosa CDC-0095) was 8 to 16 µg/mL (≈ 9.87 to 19.7 µM).
